From PubChem BioAssay (NCI)
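48-hour exposure; five concentrations; linearly interpolated endpoints. Definition used: TGI = concentration required for complete inhibition of growth.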

Key:
Assay in all cases: growth of human tumour cells (NCI), 48 h
[1] = test system: RPMI-8226 leukemia
[2] = test system: OVCAR-3 ovarian
[3] = test system: NCI-H226 lung
[4] = test system: IGROV1 ovarian
[5] = test system: MOLT-4 leukemia
[6] = test system: KM20L2 colon
[7] = test system: NCI-H23 lung
[8] = test system: SK-MEL-28 melanoma
[9] = test system: OVCAR-4 ovarian
[10] = test system: UACC-257 melanoma
[11] = test system: LOX IMVI melanoma
[12] = test system: NCI-H460 lung
[13] = test system: EKVX NSCLC
[14] = test system: UACC-62 melanoma
[15] = test system: COLO 205 colon
[16] = test system: RXF 393 renal
[17] = test system: M14 melanoma
[18] = test system: SR leukemia
[19] = test system: T-47D breast
[20] = test system: SK-MEL-5 melanoma

Row | Compound | TGI [1] [µM] | TGI [2] [µM] | TGI [3] [µM] | TGI [4] [µM] | TGI [5] [µM] | TGI [6] [µM] | TGI [7] [µM] | TGI [8] [µM] | TGI [9] [µM] | TGI [10] [µM] | TGI [11] [µM] | TGI [12] [µM] | TGI [13] [µM] | TGI [14] [µM] | TGI [15] [µM] | TGI [16] [µM] | TGI [17] [µM] | TGI [18] [µM] | TGI [19] [µM] | TGI [20] [µM]
1 | CCCCCN(CCCCC)C(=O)[C@H](CCC(=O)O)NC(=O)c1cc2ccccc2[nH]1 | 54.8 | > 100 | > 100 | > 100 | 64.4 | > 100 | 85.8 | 96.4 | > 100 | > 100 | > 100 | > 100 | > 100 | > 100 | > 100 | 93.5 | > 100 |  |  | 
2 | Cc1cc(N(CCC#N)CCC#N)ccc1/C=C(\NC(=O)/C=C/c1ccccc1)C(=O)Nc1ccc(Cl)cc1 | > 100 | > 100 | > 100 | > 100 | > 100 | > 79.6 | > 100 | > 100 | > 100 | > 100 | > 100 | > 100 | > 100 | > 14.7 | 12.7 | > 100 | > 100 | > 100 | > 100 | 5.95
3 | O=C(Nc1ccc([N+](=O)[O-])cc1[N+](=O)[O-])C(=O)C(C(=O)c1ccc(Cl)c(Cl)c1)C1OC(=O)c2ccccc21 (centres undefined) | > 100 | 93.1 | 36 | 84.7 | 76.8 | 89.7 | 39.8 |  | > 100 | 68.4 | 41.4 |  | > 100 | 36 | 48.4 | 24.8 |  | > 100 |  | 
4 | Cc1ccc(C2[C@H]3C(=O)N(c4ccc(Cc5ccc(N6C(=O)[C@@H]7ON(c8ccccc8)C(c8ccc(C)cc8)[C@@H]7C6=O)cc5)cc4)C(=O)[C@H]3ON2c2ccccc2)cc1 (some centres undefined) | > 100 | > 100 | > 100 | > 100 | > 100 | > 100 | > 100 | > 100 | > 100 | > 100 | > 100 | > 100 |  | > 100 | > 100 | > 100 | > 100 |  |  | > 100
5 | CC1(C2COC(=O)C2)SCCCS1 (centres undefined) |  | > 100 | > 100 | > 100 | > 100 | > 100 | > 100 | > 100 | > 100 | > 100 | > 100 | > 100 | > 100 | > 100 | > 100 | > 100 | > 100 | > 100 |  | > 100
6 | NCCCC(N=Cc1nc(-c2ccccc2)oc1O)C(=O)O (centres undefined) | > 100 | > 100 | > 100 | > 100 | > 100 | > 100 | > 100 | > 100 | > 100 | > 100 | > 100 | > 100 | > 100 | > 100 | > 100 | > 100 | > 100 | > 100 |  | > 100
7 | COc1ccc(/C=N/N=C(\N)NO)cc1F | > 100 | > 100 | 41.4 | > 100 | > 100 | > 100 | 81 | > 100 | > 100 | > 100 | 48.7 | > 100 | > 100 | 36.3 | > 100 | 73.2 | 33.3 | 86.5 |  | 18.5
8 | CN1C(=O)[C@H](c2c[nH]c3ccccc23)[C@H](c2c[nH]c3ccccc23)C1=O | > 66.9 | > 56.5 | 97.6 | > 45.3 | > 77 |  | > 65.1 | > 87.6 | 50.6 | > 63.8 | 37.8 | > 50.1 | > 100 | > 54.4 | > 37.9 | > 90.6 | > 100 | > 74.5 | > 100 | > 52.5
